Twelve compounds from patent US20230212222A1 (ANYGEN CO., LTD., priority 2020, published 2023) can be followed below.

Molecules are shown by their SMILES. Square brackets hold non-standard residues; d marks the D form. Peptide text beside a SMILES is read from it. * marks the point of attachment. His(Trt) = N[C@@H](Cc1cn(C(c2ccccc2)(c2ccccc2)c2ccccc2)cn1)C(=O)O; dHis(Trt) = N[C@H](Cc1cn(C(c2ccccc2)(c2ccccc2)c2ccccc2)cn1)C(=O)O; His(τ-CHPh2) = N[C@@H](Cc1cn(C(c2ccccc2)c2ccccc2)cn1)C(=O)O; Biotin = O=C1N[C@H]2[C@H](CS[C@H]2CCCCC(=O)*)N1; sY = N[C@@H](Cc1ccc(OS(=O)(=O)O)cc1)C(=O)O; dPhe(4-Cl) = N[C@H](Cc1ccc(Cl)cc1)C(=O)O; dPhe(4-Me) = Cc1ccc(C[C@@H](N)C(=O)O)cc1; d2Nal = N[C@H](Cc1ccc2ccccc2c1)C(=O)O; Myristoyl = CCCCCCCCCCCCCC(=O)*; Decanoyl = CCCCCCCCCC(=O)*; Octanoyl = CCCCCCCC(=O)*; Boc = CC(C)(C)OC(=O)*

Series [1] deals with T1, GPR39 (Homo sapiens, UniProt O43194).
T1 sequence (O43194 1-453): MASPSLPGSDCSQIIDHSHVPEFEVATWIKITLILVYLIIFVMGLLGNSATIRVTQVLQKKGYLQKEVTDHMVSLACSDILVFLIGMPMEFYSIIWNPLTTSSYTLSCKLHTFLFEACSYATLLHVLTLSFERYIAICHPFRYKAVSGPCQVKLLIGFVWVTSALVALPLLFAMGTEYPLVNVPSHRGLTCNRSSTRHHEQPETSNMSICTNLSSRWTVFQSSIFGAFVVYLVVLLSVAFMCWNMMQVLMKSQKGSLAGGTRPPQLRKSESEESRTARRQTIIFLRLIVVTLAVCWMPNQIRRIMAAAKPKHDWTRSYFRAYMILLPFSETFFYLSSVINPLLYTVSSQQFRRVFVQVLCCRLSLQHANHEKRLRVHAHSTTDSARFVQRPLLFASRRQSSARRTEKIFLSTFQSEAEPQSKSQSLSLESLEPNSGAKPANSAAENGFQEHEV
Experimental: (§1) Specifically, the fibroblast cell line CV-1 (1×10^5 cells/ml, Korea Cell Line Bank) was cultured in a 96 well cell culture plate for 24 hours, and then treated with GPR39 inserted into adenovirus and SRE (serum response element) luciferase at 50 MOI (multiplicity of infection) and 25 MOI virus for 3 hours, respectively, and then cultured for 24 hours.

Series [2] has as its target T1, GPR39. In words: luciferase assay system (SRE luciferase reporter gene) for GPR39 in CV-1 cells. The note with it: EC50, CV-1 cells, GPR39 and SRE luciferase adenovirus, treated 6 hours, luminometer. (A reporter such as luciferase makes a cellular process visible.)
Experimental: as §1

As for `CCCCCCCC(=O)NCCCC[C@H](NC(=O)[C@H](Cc1c[nH]c2ccccc12)NC(=O)OC(C)(C)C)C(=O)N[C@H](Cc1ccc(C)cc1)C(=O)N[C@@H](Cc1ccc(O)cc1)C(=O)O` [HKFY-78, ((R)-2-((S)-2-((S)-2-((tert-butoxycarbonyl)amino)-3-(1H-indol-3-yl)propanamido)-6-octanamidohexanamido)-3-(p-tolyl)propanoyl)-L-tyrosine] (Boc-WK(Octanoyl)[dPhe(4-Me)]Y-OH), the “ECmax (-fold induction over basal)” value in series [1] is 11.4 ± 1.54 -fold induction over basal. In addition, a half-maximal response in series [2] (EC50) required 9 ± 1 nM.
Turning to `CCCCCCCC(=O)NCCCC[C@H](NC(=O)[C@@H](N)Cc1cn(Cc2ccc(-c3ccccc3-c3nnn[nH]3)cc2)cn1)C(=O)N[C@H](Cc1ccc(C)cc1)C(=O)N[C@@H](Cc1ccc(O)cc1)C(=O)O` [HKFY-77, ((R)-2-((S)-2-((S)-3-(1-((2′-(1H-tetrazol-5-yl)-[1,1′-biphenyl]-4-yl)methyl)-1H-imidazol-4-yl)-2-aminopropanamido)-6-octanamidohexanamido)-3-(p-tolyl)propanoyl)-L-tyrosine], the “ECmax (-fold induction over basal)” value in series [1] is on record as 11.6 ± 2.14 -fold induction over basal. This compound also registered an EC50 in series [2] of 7 ± 2 nM.
With `CCCCCCCCCCCCCC(=O)NCCCC[C@H](NC(=O)[C@@H](N)Cc1cn(C(c2ccccc2)(c2ccccc2)c2ccccc2)cn1)C(=O)N[C@@H](Cc1ccccc1)C(=O)N[C@@H](Cc1ccc(O)cc1)C(=O)O` [HKFY-26, N6-tetradecanoyl-N2-(Nt-trityl-L-histidyl)-L-lysyl-L-phenylalanyl-L-tyrosine] (H-[His(Trt)]K(Myristoyl)FY-OH), the “ECmax (-fold induction over basal)” value in series [1] is recorded as 19.82 ± 0.57 -fold induction over basal. In series [2], this compound came in with an EC50 of 280 ± 20 nM.
The like results for `CCCCCCCC(=O)NCCCC[C@H](NC(=O)[C@H](N)Cc1cn(C(c2ccccc2)(c2ccccc2)c2ccccc2)cn1)C(=O)N[C@H](Cc1ccc(C)cc1)C(=O)N[C@@H](Cc1ccc(O)cc1)C(=O)O` [HKFY-31, ((R)-2-((S)-2-((R)-2-amino-3-(1-trityl-1H-imidazol-4-yl)propanamido)-6-octanamidohexanamido)-3-(p-tolyl)propanoyl)-L-tyrosine] (H-[dHis(Trt)]K(Octanoyl)[dPhe(4-Me)]Y-OH) were, in that order, 20.9 ± 2.51 -fold induction over basal and 20 ± 3 nM.
For `CCCCCCCC(=O)NCCCC[C@H](NC(=O)[C@@H](N)Cc1cn(C(c2ccccc2)c2ccccc2)cn1)C(=O)N[C@H](Cc1ccc(C)cc1)C(=O)N[C@@H](Cc1ccc(OS(=O)(=O)O)cc1)C(=O)O` [HKFY-35, (S)-2-((R)-2-((S)-2-((S)-2-amino-3-(1-benzhydryl-1H-imidazol-4-yl)propanamido)-6-octanamidohexanamido)-3-(p-tolyl)propanamido)-3-(4-(sulfooxy)phenyl)propanoic acid] (H-[His(τ-CHPh2)]K(Octanoyl)[dPhe(4-Me)][sY]-OH), in series [1], the “ECmax (-fold induction over basal)” value was 18.9 ± 0.41 -fold induction over basal. The compound also came in with an EC50 in series [2] of 280 ± 70 nM.
Taken in the same sequence, the figures for `CCCCCCCC(=O)NCCCC[C@H](NC(=O)[C@@H](N)Cc1cn(C(c2ccccc2)(c2ccccc2)c2ccccc2)cn1)C(=O)N[C@H](Cc1ccc2ccccc2c1)C(=O)N[C@@H](Cc1ccc(O)cc1)C(=O)O` [HKFY-74, ((R)-2-((S)-2-((S)-2-amino-3-(1-trityl-1H-imidazol-4-yl)propanamido)-6-octanamidohexanamido)-3-(naphthalen-2-yl)propanoyl)-L-tyrosine] (H-[His(Trt)]K(Octanoyl)[d2Nal]Y-OH) were 18.8 ± 3.2 -fold induction over basal and 8 ± 1 nM.
Take `CCCCCCCC(=O)NCCCC[C@H](NC(=O)[C@@H](N)Cc1cn(C(c2ccccc2)(c2ccccc2)c2ccccc2)cn1)C(=O)N[C@@H](Cc1ccccc1)C(=O)N[C@@H](Cc1ccc(O)cc1)C(=O)O` [HKFY-1, N6-octanoyl-N2-(Nt-trityl-L-histidyl)-L-lysyl-L-phenylalanyl-L-tyrosine] (H-[His(Trt)]K(Octanoyl)FY-OH): the “ECmax (-fold induction over basal)” value in series [1] was 20.51 ± 0.57 -fold induction over basal. Also, the EC50 in series [2] worked out at 150 ± 10 nM.
In the case of `CCCCCCCC(=O)NCCCC[C@@H](NC(=O)[C@@H](N)Cc1cn(C(c2ccccc2)(c2ccccc2)c2ccccc2)cn1)C(=O)N[C@H](Cc1ccc(Cl)cc1)C(=O)N[C@@H](Cc1ccc(O)cc1)C(=O)O` [HKFY-16, ((R)-2-((R)-2-((S)-2-amino-3-(1-trityl-1H-imidazol-4-yl)propanamido)-6-octanamidohexanamido)-3-(4-chlorophenyl)propanoyl)-L-tyrosine] (H-[His(Trt)][dK](Octanoyl)[dPhe(4-Cl)]Y-OH), the “ECmax (-fold induction over basal)” value in series [1] is 27.9 ± 3.4 -fold induction over basal. The same compound registered an EC50 in series [2] of 240 ± 20 nM.
`CCCCCCCCCC(=O)NCCCC[C@H](NC(=O)[C@@H](N)Cc1cn(C(c2ccccc2)(c2ccccc2)c2ccccc2)cn1)C(=O)N[C@@H](Cc1ccccc1)C(=O)N[C@@H](Cc1ccc(O)cc1)C(=O)O` [HKFY-24, N6-decanoyl-N2-(Nt-trityl-L-histidyl)-L-lysyl-L-phenylalanyl-L-tyrosine] (H-[His(Trt)]K(Decanoyl)FY-OH): the “ECmax (-fold induction over basal)” value in series [1] is 7.03 ± 0.57 -fold induction over basal. Besides, the concentration giving a half-maximal response (EC50) in series [2] was 240 ± 70 nM.
Consider `CCCCCCCC(=O)NCCCC[C@H](NC(=O)[C@H](Cc1cn(C(c2ccccc2)(c2ccccc2)c2ccccc2)cn1)NC(=O)CCCC[C@@H]1SC[C@@H]2NC(=O)N[C@@H]21)C(=O)N[C@@H](Cc1ccccc1)C(=O)N[C@@H](Cc1ccc(O)cc1)C(=O)O` [HKFY-2, N6-octanoyl-N2-(Na-(5-((3aS,4S,6aR)-2-oxohexahydro-1H-thieno[3,4-d]imidazol-4-yl)pentanoyl)-Nt-trityl-L-histidyl)-L-lysyl-L-phenylalanyl-L-tyrosine] (Biotin-[His(Trt)]K(Octanoyl)FY-OH), for which the “ECmax (-fold induction over basal)” value in series [1] is recorded as 15 ± 1.87 -fold induction over basal. Also, the 50% effective concentration (EC50) in series [2] is 140 ± 70 nM.
As to `CCCCCCCC(=O)NCCCC[C@H](NC(=O)[C@@H](N)Cc1cn(-c2ccc(C(C)(C)C)cc2)cn1)C(=O)N[C@H](Cc1ccc(C)cc1)C(=O)N[C@@H](Cc1ccc(O)cc1)C(=O)O` [HKFY-61, ((R)-2-((S)-2-((S)-2-amino-3-(1-(4-(tert-butyl)phenyl)-1H-imidazol-4-yl)propanamido)-6-octanamidohexanamido)-3-(p-tolyl)propanoyl)-L-tyrosine], the “ECmax (-fold induction over basal)” value in series [1] is listed as 9.88 ± 1.8 -fold induction over basal. Moreover, the response in series [2] was half-maximal at 20 ± 3 nM (EC50).
For `CCCCCCCC(=O)NCCCC[C@H](NC(=O)[C@@H](N)Cc1cn(C(c2ccccc2)(c2ccccc2)c2ccccc2)cn1)C(=O)N[C@@H](Cc1ccccc1)C(=O)N[C@@H](Cc1c[nH]c2ccccc12)C(=O)O` [HKFY-46, N6-octanoyl-N2-(Nt-trityl-L-histidyl)-L-lysyl-L-phenylalanyl-L-tryptophan] (H-[His(Trt)]K(Octanoyl)FW-OH), the “ECmax (-fold induction over basal)” value in series [1] is 20 ± 0.28 -fold induction over basal. In series [2], this compound displayed an EC50 of 260 ± 150 nM.

By EC50 is commonly meant the concentration giving half of the maximal effect. Read a high EC50 as lower potency in that assay.
